Measured values published in patent US20150105252A1, “SUBSTITUTED PYRAZOLES AS HERBICIDES” (E I DU PONT DE NEMOURS AND COMPANY, priority 2013, published 2015).

Columns and labels:
morningglory = assay: Test A postemergence; assay type: in vivo, Ipomoea spp.
In short: (§1)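 Ratings express plant response from 0 (no effect) to 100 (complete control), judged visually against untreated controls after approximately 10 days in the greenhouse. Preemergence applications were made as directed soil sprays onto seeded loam–sand mix, and postemergence applications onto 2–10 cm plants at one- to two-leaf stage.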

foxtail, giant [1] = assay: Test A preemergence; assay type: in vivo, Setaria faberii; settings: preemergence
In short: as §1

barnyardgrass [2] = assay: Test A preemergence; assay type: in vivo, Echinochloa crus-galli; settings: preemergence
In short: as §1

foxtail, giant [3] = assay: Test C preemergence; assay type: in vivo, Setaria faberii; settings: preemergence; for Plant response rating, Foxtail, Giant: 125 g ai/ha, scale 0 to 100, 0 = no effect, 100 = complete control
In short: (§2)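 Seeds sown in loam–sand blend and treated preemergence with test chemicals in non-phytotoxic solvent with surfactant; postemergence plants in peat-based medium, treated at 2–18 cm (1- to 4-leaf stage). Greenhouse 13 to 15 days, then visual rating versus controls, 0 (no effect) to 100 (complete control).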

foxtail, giant [4] = assay: Test A postemergence; assay type: in vivo, Setaria faberii
In short: as §1

waterhemp = assay: Test C preemergence; assay type: in vivo, Amaranthus rudis; settings: preemergence; for Plant response rating, Waterhemp: 125 g ai/ha, scale 0 to 100, 0 = no effect, 100 = complete control
In short: as §2

johnsongrass = assay: Test C preemergence; assay type: in vivo, Sorghum halepense; settings: preemergence; for Plant response rating, Johnsongrass: 125 g ai/ha, scale 0 to 100, 0 = no effect, 100 = complete control
In short: as §2

barnyardgrass [5] = assay: Test C preemergence; assay type: in vivo, Echinochloa crus-galli; settings: preemergence; for Plant response rating, Barnyardgrass: 125 g ai/ha, scale 0 to 100, 0 = no effect, 100 = complete control
In short: as §2

pigweed = assay: Test C preemergence; assay type: in vivo, Amaranthus retroflexus; settings: preemergence; for Plant response rating, Pigweed: 125 g ai/ha, scale 0 to 100, 0 = no effect, 100 = complete control
In short: as §2

corn [6] = assay: Test C preemergence; assay type: in vivo, Zea mays; settings: preemergence; for Plant response rating, Corn: 125 g ai/ha, scale 0 to 100, 0 = no effect, 100 = complete control
In short: as §2

corn [7] = assay: Test A preemergence; assay type: in vivo, Zea mays; settings: preemergence
In short: as §1

soybean = assay: Test C preemergence; assay type: in vivo, Glycine max; settings: preemergence; for Plant response rating, Soybean: 125 g ai/ha, scale 0 to 100, 0 = no effect, 100 = complete control
In short: as §2

wheat = assay: Test A postemergence; assay type: in vivo, Triticum aestivum
In short: as §1

crabgrass, large = assay: Test C preemergence; assay type: in vivo, Digitaria sanguinalis; settings: preemergence; for Plant response rating, Crabgrass, Large: 125 g ai/ha, scale 0 to 100, 0 = no effect, 100 = complete control
In short: as §2

velvetleaf = assay: Test C preemergence; assay type: in vivo, Abutilon theophrasti; settings: preemergence; for Plant response rating, Velvetleaf: 125 g ai/ha, scale 0 to 100, 0 = no effect, 100 = complete control
In short: as §2

[8] = Postemergence, 500 g ai/ha, 0 to 100 scale (0 no effect, 100 complete control)
[9] = postemergence, 125 g ai/ha, about 10 days, visual rating on 0 to 100 scale (0 no effect, 100 complete control)
[10] = 125 g ai/ha, visual injury, 0 to 100 scale, approx. 10 days
[11] = 500 g ai/ha, visual injury after approx. 10 days, 0 to 100 scale (0 no effect, 100 complete control)
[12] = 31 g ai/ha, visual rating, scale 0 to 100 (0 no effect, 100 complete control), 13 to 15 days
[13] = 62 g ai/ha, scale 0 to 100 (0 no effect, 100 complete control), 13 to 15 days
[14] = 250 g ai/ha, scale 0 to 100, 0 is no effect, 100 is complete control
[15] = 125 g ai/ha, visual injury approx. 10 days after treatment

O=C(NCC(F)(F)F)c1cc(CCCl)n(Cc2ccnc(C(F)(F)F)c2)n1 [Compound 143]
Morningglory plant response rating (morningglory; [8]): 100 | Morningglory plant response rating (morningglory; [9]): 40 | Foxtail, Giant plant response rating (foxtail, giant [1]; [10]): 100 | Foxtail, Giant plant response rating (foxtail, giant [1]; [11]): 100 | Barnyardgrass plant response rating (barnyardgrass [2]; [10]): 90 | Barnyardgrass plant response rating (barnyardgrass [2]; [11]): 100 | Foxtail, Giant plant response rating (foxtail, giant [3]; [12]): 100 | Foxtail, Giant plant response rating (foxtail, giant [3]; [13]): 100 | Plant response rating, Foxtail, Giant (foxtail, giant [3]; 13 to 15 days): 100 | Foxtail, Giant plant response rating (foxtail, giant [3]; [14]): 100 | Foxtail, Giant plant response rating (foxtail, giant [4]; [8]): 90 | Foxtail, Giant plant response rating (foxtail, giant [4]; [9]): 90 | Waterhemp plant response rating (waterhemp; [12]): 98 | Waterhemp plant response rating (waterhemp; [13]): 98 | Plant response rating, Waterhemp (waterhemp; 13 to 15 days): 100 | Waterhemp plant response rating (waterhemp; [14]): 100 | Johnsongrass plant response rating (johnsongrass; [12]): 70 | Johnsongrass plant response rating (johnsongrass; [13]): 85 | Plant response rating, Johnsongrass (johnsongrass; 13 to 15 days): 95 | Johnsongrass plant response rating (johnsongrass; [14]): 95 | Barnyardgrass plant response rating (barnyardgrass [5]; [12]): 75 | Barnyardgrass plant response rating (barnyardgrass [5]; [13]): 100 | Plant response rating, Barnyardgrass (barnyardgrass [5]; 13 to 15 days): 100 | Barnyardgrass plant response rating (barnyardgrass [5]; [14]): 100 | Pigweed plant response rating (pigweed; [12]): 100 | Pigweed plant response rating (pigweed; [13]): 100 | Plant response rating, Pigweed (pigweed; 13 to 15 days): 100 | Pigweed plant response rating (pigweed; [14]): 100 | Corn plant response rating (corn [6]; [12]): 40 | Corn plant response rating (corn [6]; [13]): 75 | Plant response rating, Corn (corn [6]; 13 to 15 days): 90 | Corn plant response rating (corn [6]; [14]): 95 | Corn plant response rating (corn [7]; [10]): 50 | Corn plant response rating (corn [7]; [11]): 80 | Soybean plant response rating (soybean; [12]): 35 | Soybean plant response rating (soybean; [13]): 85 | Plant response rating, Soybean (soybean; 13 to 15 days): 98 | Soybean plant response rating (soybean; [14]): 98 | Wheat plant response rating (wheat; [8]): 80 | Wheat plant response rating (wheat; [9]): 60 | Crabgrass, Large plant response rating (crabgrass, large; [12]): 100 | Crabgrass, Large plant response rating (crabgrass, large; [13]): 100 | Plant response rating, Crabgrass, Large (crabgrass, large; 13 to 15 days): 100 | Crabgrass, Large plant response rating (crabgrass, large; [14]): 100 | Velvetleaf plant response rating (velvetleaf; [12]): 100 | Velvetleaf plant response rating (velvetleaf; [13]): 98 | Plant response rating, Velvetleaf (velvetleaf; 13 to 15 days): 100 | Velvetleaf plant response rating (velvetleaf; [14]): 100

CCCNC(=O)c1cc(CCCl)n(Cc2ccnc(C(F)(F)F)c2)n1 [Compound 145]
Morningglory plant response rating (morningglory; [8]): 100 | Morningglory plant response rating (morningglory; [9]): 80 | Foxtail, Giant plant response rating (0 to 100 scale) (foxtail, giant [1]; [15]): 100 | Foxtail, Giant plant response rating (foxtail, giant [1]; [11]): 100 | Barnyardgrass plant response rating (barnyardgrass [2]; [10]): 90 | Barnyardgrass plant response rating (barnyardgrass [2]; [11]): 100 | Foxtail, Giant plant response rating (foxtail, giant [3]; [12]): 100 | Plant response rating, Foxtail, Giant (foxtail, giant [3]; 13 to 15 days): 100 | Foxtail, Giant plant response rating (foxtail, giant [3]; [14]): 100 | Foxtail, Giant plant response rating (foxtail, giant [4]; [8]): 90 | Foxtail, Giant plant response rating (foxtail, giant [4]; [9]): 90 | Waterhemp plant response rating (waterhemp; [12]): 98 | Waterhemp plant response rating (waterhemp; [13]): 100 | Plant response rating, Waterhemp (waterhemp; 13 to 15 days): 100 | Waterhemp plant response rating (waterhemp; [14]): 100 | Johnsongrass plant response rating (johnsongrass; [12]): 55 | Plant response rating, Johnsongrass (johnsongrass; 13 to 15 days): 98 | Johnsongrass plant response rating (johnsongrass; [14]): 98 | Barnyardgrass plant response rating (barnyardgrass [5]; [12]): 95 | Plant response rating, Barnyardgrass (barnyardgrass [5]; 13 to 15 days): 100 | Barnyardgrass plant response rating (barnyardgrass [5]; [14]): 100 | Pigweed plant response rating (pigweed; [12]): 100 | Pigweed plant response rating (pigweed; [13]): 100 | Plant response rating, Pigweed (pigweed; 13 to 15 days): 100 | Pigweed plant response rating (pigweed; [14]): 100 | Corn plant response rating (corn [6]; [12]): 10 | Corn plant response rating (corn [6]; [13]): 50 | Plant response rating, Corn (corn [6]; 13 to 15 days): 80 | Corn plant response rating (corn [6]; [14]): 90 | Corn plant response rating (0 to 100 scale) (corn [7]; [15]): 30 | Corn plant response rating (corn [7]; [11]): 60 | Soybean plant response rating (soybean; [12]): 20 | Soybean plant response rating (soybean; [13]): 70 | Plant response rating, Soybean (soybean; 13 to 15 days): 85 | Soybean plant response rating (soybean; [14]): 95 | Wheat plant response rating (wheat; [8]): 80 | Wheat plant response rating (wheat; [9]): 50 | Crabgrass, Large plant response rating (crabgrass, large; [12]): 100 | Plant response rating, Crabgrass, Large (crabgrass, large; 13 to 15 days): 100 | Crabgrass, Large plant response rating (crabgrass, large; [14]): 100 | Velvetleaf plant response rating (velvetleaf; [12]): 90 | Velvetleaf plant response rating (velvetleaf; [13]): 100 | Plant response rating, Velvetleaf (velvetleaf; 13 to 15 days): 100 | Velvetleaf plant response rating (velvetleaf; [14]): 100
